Experimental data published in patent US7595401B2, “Therapeutic compounds and their use in cancer” (Myriad Pharmaceuticals, Inc., priority 2006, dated 2009).

test system: purified human Hsp90; test: Binding Assay: fluorescence polarization with BODIPY-labeled geldanamycin; settings: 5 μM compound, BODIPY-GM 10 nM, Hsp90 30 nM
Outline: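 Fluorescence polarization competition with BODIPY-geldanamycin (10 nM final) and human Hsp90 (30 nM final) in HEPES-KOH pH 7.3 buffer with molybdate, NP-40, DTT; 2% DMSO, overnight at room temperature. Read 485/530 nm; percent inhibition from mP normalized to DMSO controls, fluorescent-compound points excluded.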

% Inhibition at 5 μM Compound Concentration [%]	SMILES
0	Cc1ccc(CCn2cnc(N)c3nc(Sc4cc5c(cc4Br)OCO5)nc2-3)cc1 [Example 164, 8-(6-bromo-benzo[1,3]dioxol-5-ylsulfanyl)-3-(2-p-tolyl-ethyl)-3H-purin-6-ylamine]
0	COc1ccc(OC)c(Sc2nc3c(N)ncnc3n2Cc2ccc([N+](=O)[O-])cc2)c1 [Example 84, 8-(2,5-Dimethoxy-phenylsulfanyl)-9-(4-nitro-benzyl)-9H-purin-6-ylamine]
1.00	COc1cc(Br)c(Sc2nc3c(N)ncn(CCC4CCN(C(C)=O)CC4)c-3n2)cc1OC [Example 566, 3-[2-(1-Acetylpiperidin-4-yl)ethyl]-8-[(2-bromo-4,5-dimethoxyphenyl)thio]-3 H-purin-6-amine]
0	COc1ccc(OC)c(Sc2nc3c(N)ncn(CCc4ccccc4C(F)(F)F)c-3n2)c1 [Example 184, 8-(2,5-dimethoxy-phenylsulfanyl)-3-[2-(2-trifluoromethyl-phenyl)-ethyl]-3H-purin-6-ylamine]
8	Nc1ncn(CCc2ccccc2)c2nc(Cc3cc4c(cc3Br)OCO4)nc1-2 [Example 210, 8-(6-Bromo-benzo[1,3]dioxol-5-ylmethyl)-3-phenethyl-3H-purin-6-ylamine]
15	CS(=O)(=O)N1CCCCC1CCn1cnc(N)c2nc(Sc3cc4c(cc3Br)OCO4)nc1-2 (stereo not shown) [Example 373, 8-[(6-Bromo-1,3-benzodioxol-5-yl)thio]-3-{2-[1-(methylsulfonyl)piperidin-2-yl]ethyl}-3H-purin-6-amine]
0.00	COC(=O)c1ccnc(Sc2nc3c(N)ncn(CCC4CCN(C=O)CC4)c-3n2)c1 [Example 543, Methyl 2-({6-amino-3-[2-(1-formylpiperidin-4-yl)ethyl]-3 H-purin-8-yl}thio)isonicotinate]

same assay, conditions: BODIPY-GM 10 nM, Hsp90 30 nM

IC50 [nM]	SMILES
125	CC(C)(C)NC(=O)N1CCC(CCn2c(Sc3cc4c(cc3Br)OCO4)nc3c(N)ncnc32)CC1 [Example 433, 4-(2-{6-Amino-8-[(6-bromo-1,3-benzodioxol-5-yl)thio]-9H-purin-9-yl}ethyl)-N-(tert-butyl)piperidine-1-carboxamide]
70	Nc1ncnc2c1nc(Sc1cc3c(cc1Br)OCO3)n2CCc1ccccc1C(F)(F)F [Example 290, 8-[(6-Bromo-1,3-benzodioxol-5-yl)thio]-9-{2-[2-(trifluoromethyl)phenyl]ethyl}-9H-purin-6-amine]
110	Nc1ncnc2c1nc(Sc1cc3c(cc1Br)OCO3)n2CCC1CCN(C(=O)C2CCC2)CC1 [Example 512, 8-[(6-Bromo-1,3-benzodioxol-5-yl)thio]-9-{2-[1-(cyclobutylcarbonyl)piperidin-4-yl]ethyl}-9 H-purin-6-amine]
> 25000	Nc1ncnc2c1nc(Sc1cccc(OC(F)F)c1)n2CCc1ccccc1 [Example 252, 8-{[3-(Difluoromethoxy)phenyl]thio}-9-(2-phenylethyl)-9H-purin-6-amine]
> 25000	CCOc1ccc(OCC)c(Sc2nc3c(N)ncnc3n2CCC2CCN(C(=O)OC(C)(C)C)CC2)c1 [Example 362, tert-Butyl 4-(2-{6-amino-8-[(2,5-diethoxyphenyl)thio]-9H-purin-9-yl}ethyl)piperidine-1-carboxylate]
270	COc1ccc(CN2CCC(CCn3c(Sc4cc5c(cc4Br)OCO5)nc4c(N)ncnc43)CC2)cc1 [Example 594, 8-[(6-Bromo-1,3-benzodioxol-5-yl)thio]-9-{2-[1-(4-methoxybenzyl)piperidin-4-yl]ethyl}-9 H-purin-6-amine]
> 5000	COc1ccc(OC)c(Sc2nc3c(N)ncnc3n2Cc2ccc([N+](=O)[O-])cc2)c1 [Example 84, 8-(2,5-Dimethoxy-phenylsulfanyl)-9-(4-nitro-benzyl)-9H-purin-6-ylamine]
120	Nc1ncnc2c1nc(Sc1cc3c(cc1Br)OCO3)n2CCC1CCN(C(=O)[C@@H](O)CO)CC1 [Example 771, (2S)-3-[4-(2-{6-amino-8-[(6-bromo-1,3-benzodioxol-5-yl)thio]-9H-purin-9-yl}ethyl)piperidin-1-yl]-3-oxopropane-1,2-diol]
400	CC(C)(C)OC(=O)N1CCC(CCn2c(Sc3cc4c(cc3Br)OCO4)nc3c(N)ncnc32)C(C)(C)C1 (stereo not shown) [Example 464, tert-Butyl 4-(2-{6-amino-8-[(6-bromo-1,3-benzodioxol-5-yl)thio]-9H-purin-9-yl}ethyl)-3,3-dimethylpiperidine-1-carboxylate]
210	COc1ccc(OC)c(Sc2nc3c(N)nc(F)nc3n2CCc2ccccc2)c1 [Example 230, 8-[(2,5-Dimethoxyphenyl)thio]-2-fluoro-9-(2-phenylethyl)-9H-purin-6-amine]
90	Nc1ncnc2c1nc(Sc1cc3c(cc1Br)OCO3)n2CCc1cccs1 [Example 203, 8-(6-Bromo-benzo[1,3]dioxol-5-ylsulfanyl)-9-(2-thiophen-2-yl-ethyl)-9H-purin-6-ylamine]
> 10000	Nc1ncnc2c1nc(S(=O)(=O)c1ccc(Cl)cc1)n2CCc1ccccc1 [Example 17, 8-(4-Chloro-phenylsulfonyl)-9-phenethyl-9H-purin-6-ylamine]
> 25000	COc1cccc(Sc2nc3c(N)ncnc3n2CC(=O)c2ccccc2)c1 [Example 298, 2-{6-Amino-8-[(3-methoxyphenyl)thio]-9H-purin-9-yl}-1-phenylethanone]
590	Nc1ncnc2c1nc(Sc1cc3c(cc1Br)OCO3)n2CCC1CCCN(S(=O)(=O)C(F)(F)F)C1 (stereo not shown) [Example 402, 8-[(6-Bromo-1,3-benzodioxol-5-yl)thio]-9-(2-{1-[(trifluoromethyl)sulfonyl]piperidin 3-yl}ethyl)-9H-purin-6-amine]
210	CC(C)C[C@H](N)C(=O)N1CCCC(CCn2c(Sc3cc4c(cc3Br)OCO4)nc3c(N)ncnc32)C1 (stereo partly drawn) [Example 748, 9-(2-{1-[(2S)-2-Amino-4-methylpentanoyl]piperidin-3-yl}ethyl)-8-[(6-bromo-1,3-benzodioxol-5-yl)thio]-9H-purin-6-amine]
230	CC(C)n1nnnc1N1CCC(CCn2c(Sc3cc4c(cc3Br)OCO4)nc3c(N)ncnc32)CC1 [Example 612, 8-[(6-Bromo-1,3-benzodioxol-5-yl)thio]-9-{2-[1-(1-isopropyl-1 H-tetrazol-5-yl)piperidin-4-yl]ethyl}-9 H-purin-6-amine]
> 10000	COc1ccc(OC)c(Sc2nc3c(N)ncnc3n2CCc2ccc(OC)c(OC)c2)c1 [Example 21, 9-[2-(3,4-Dimethoxy-phenyl)-ethyl]-8-(2,5-dimethoxy-phenylsulfanyl)-9H-purin-6-ylamine]
70	CC1(C)CNCCC1CCn1c(Sc2cc3c(cc2Br)OCO3)nc2c(N)ncnc21 (stereo not shown) [Example 472, 8-[(6-Bromo-1,3-benzodioxol-5-yl)thio]-9-[2-(3,3-dimethylpiperidin-4-yl)ethyl]-9 H-purin-6-amine]
12000	Nc1ncnc2c1nc(Sc1cc(Cl)c(Cl)cc1Cl)n2CCc1ccccc1 [Example 259, 9-(2-Phenylethyl)-8-[(2,4,5-trichlorophenyl)thio]-9H-purin-6-amine]
950	COc1ccc(OC)c(Sc2nc3c(N)ncnc3n2CCc2ccc(NC(=O)OC(C)(C)C)cc2)c1 [Example 214, (4-{2-[6-Amino-8-(2,5-dimethoxy-phenylsulfanyl)-purin-9-yl]-ethyl}-phenyl)-carbamic acid tert-butyl ester]
> 5000	COc1ccc([N+](=O)[O-])cc1Sc1nc2c(N)ncn(CCC3CCN(C=O)CC3)c-2n1 [Example 537, 4-(2-{6-Amino-8-[(2-methoxy-5-nitrophenyl)thio]-3 H-purin-3-yl}ethyl)piperidine-1-carbaldehyde]
